# Data taken from patent US20250352555A1, “METHOD OF INCREASING IMMUNE CELL ACTIVATION AND/OR TREATING CANCER USING DIBENZOXAZEPINONES” (VASCULAR THERAPEUTICS PTY LTD, priority 2022, published 2025).
# Like-named read-outs stand apart in the source and are kept apart here.
# Tests used:
# [1] = test system: non-small cell lung carcinoma; settings: non-small cell lung carcinoma-bearing mice; cited from earlier work
# [2] = test system: PD-1; assay: Western blotting for PD-1, Jurkat T cells; format: cell-based, human; settings: 24 h; for PD-1 expression (Western blot): various concentrations
# Protocol: (§1) Western blotting. Cells were treated with compounds and times indicated and total cell lysates were prepared in RIPA buffer. Lysates (10 μg) were resolved by SDS-PAGE and transferred to Immobilon-P polyvinylidene difluoride (PVDF) membranes (Millipore, USA).
# (§2) Membranes were blocked with 5% skim milk and incubated with rabbit monoclonal anti-c-Jun (Abcam, cat. no. ab32137; mouse, rat and human reactive) antibody, rabbit monoclonal anti-PD-1 (Abcam, cat. no. ab214421) antibody, mouse monoclonal β-actin antibody (Sigma-Aldrich, cat. no. A5316), anti-phospho-SAPK/JNK (Thr^183/Tyr^185) (98F2) (CST, cat. no. 4671) antibody, anti-phospho-p44/42 MAPK (ERK1/2) (Thr^202/Tyr^204) (D13.14.4E) (CST, cat. no. 4370) antibody, anti-phospho-p38 MAPK (Thr^180/Tyr^182) (D3F9) (CST, cat. no. 4511) antibody, anti-SAPK/JNK antibody (CST, cat. no. 9252), anti-p44/42 MAPK (ERK1/2) (137F5) antibody (CST, cat. no. 4695), anti-p38 MAPK antibody (CST, cat. no. 9212), anti-DUSP8 antibody (Abcam, cat. no. ab198175) or anti-c-MAF (BLR045F) antibody (Abcam, cat. no. ab243901). This was followed by incubation with horseradish peroxidase-conjugated secondary goat anti-rabbit (DAKO, cat. no. P0448) or goat anti-mouse (DAKO, cat. no. P0447) antibody. Chemiluminescence was detected using the Western Lightning Chemiluminescence system (Thermo Scientific, USA) and ImageQuant™ LAS 4000 biomolecular imager (GE Healthcare Life Sciences, USA). Band intensity in images generated with the LAS 4000 was quantified using NIH Image J.
# [3] = test system: resistant melanoma PDX; settings: resistant melanoma PDX model; cited from earlier work
# [4] = test system: PD-1; assay: Flow cytometry with anti-PD-1 antibodies, Jurkat T cells; format: cell-based, human; settings: same concentration range as BT2, 48 h (FIG. 17B)
# Protocol: Flow cytometry with anti-PD-1 antibodies. Jurkat T cells were grown in 6 well plates containing RPMI 1640 and 10% FBS. After 24 h, the cells were treated with various concentrations of BT2 or BT3 for 48 h. Alternatively, the cells were incubated with 3 μM BT2 for various times. After treatment, the cells were washed with PBS, and centrifuged at 300×g for 5 min, and resuspended at 5×10^6 cells/ml. The cells were then incubated with BV421 conjugated mouse anti-human CD279 (PD-1) (BD, cat. no. 562516) or BV421 conjugated mouse IgG1 (BD, cat. no. 562438) for 45 min at 22° C. Cells were then washed twice with 1 ml of Stain Buffer, centrifuged and pellets were resuspended in 0.5 ml Stain Buffer. Stained cell suspensions were analyzed by flow cytometry using a BD FACSCanto (II).
# Jurkat T cells express PD-1 (Yi et al., 2023) and are widely used as model human T cells (e.g., Repas et al., 2022). […] BT2's effects were not only dose-dependent but time-dependent. BT2 (3 μM) inhibited PD-1 levels by 50% after 24 h and by 80% after 48 h (FIG. 17C).
# [5] = test system: advanced melanoma; settings: cited from earlier work; for 5 year overall survival: advanced melanoma
# [6] = test system: p-ERK (Thr^202/Tyr^204); assay: Western blotting for p-ERK, A375 melanoma cells; format: cell-based, human; settings: 10 or 100 nM, 24 h
# Protocol: as §1
# as §2, with “4695), anti-p38 MAPK antibody (CST, cat. no. 9212), anti-DUSP8 antibody (Abcam, cat. no. ab198175) or anti-c-MAF (BLR045F) antibody (Abcam, cat. no. ab243901). This was followed by incubation with horseradish peroxidase-conjugated secondary goat anti-rabbit (DAKO, cat. no. P0448) or goat anti-mouse (DAKO, cat. no. P0447) antibody.” left out
# (§3) The effect of BT2 on ERK phosphorylation (p-ERK) was evaluated in human melanoma cells given that MAP kinase activation is key to melanoma progression and the paucity of clinically approved ERK inhibitors. […]
# [7] = test system: p-ERK (Thr^202/Tyr^204); assay: Western blotting for p-ERK, MeWo melanoma cells; format: cell-based, human; settings: 10 or 100 nM, 24 h
# Protocol: as §1
# as §2, with “4695), anti-p38 MAPK antibody (CST, cat. no. 9212), anti-DUSP8 antibody (Abcam, cat. no. ab198175) or anti-c-MAF (BLR045F) antibody (Abcam, cat. no. ab243901). This was followed by incubation with horseradish peroxidase-conjugated secondary goat anti-rabbit (DAKO, cat. no. P0448) or goat anti-mouse (DAKO, cat. no. P0447) antibody.” left out
# as §3
# [8] = test system: A375 cells; assay: Apoptosis, flow cytometry with Annexin V-FITC, A375; format: cell-based, human; settings: 1 μM, 24 h
# Protocol: (§4) Flow cytometry with Annexin V-FITC. Cells were seeded into 6 well plates in normal culture medium containing 10% FBS. After culturing overnight, the cells were incubated in complete medium containing vehicle, BT2 or SCH772984 at 1 μM and left for 24 h. The culture medium was removed and the cells were washed with PBS. Accutase (Stem Cell Technologies, cat. no. 07920) was used to detach the cells. The cells were then washed and centrifuged at 300 g for 5 min and resuspended at 1×10^6 cells/ml in 500 μl of 1× binding buffer (Annexin V-FITC Apoptosis Staining/Detection Kit, Abcam, cat. no. ab14085). The cells were transferred to 12×75 mm tubes and annexin V-FITC/propidium iodide (PI) was added and incubated for 5 min at 22° C. protected from light. Stained cell suspensions were analyzed by flow cytometry using a BD LSRFortessa X20.
# (§5) The morphology of A375 and MeWo cells exposed to 1 μM of BT2 or SCH772984 for 24 h was also assessed.
# [9] = test system: MeWo cells; assay: Apoptosis, flow cytometry with Annexin V-FITC, MeWo; format: cell-based, human; settings: 1 μM, 24 h
# Protocol: as §4, §5
compound,measurement,setting,value
O=C(NOC[C@H](O)CO)c1ccc(F)c(F)c1Nc1ccc(I)cc1F [PD0325901],effect on efficacy of anti-PD-1 antibodies,[1],can enhance the efficacy of anti-PD-1 antibodies
COc1cccc(-c2cc(=O)c3ccccc3o2)c1N [PD98059],PD-1 expression (Western blot),[2],no effect on PD-1 expression
Cc1cnc(NC2CCOCC2)nc1-n1cnc(C(=O)N[C@H](CN)c2cc(F)cc(Cl)c2)c1 [ASN007],efficacy,[3],demonstrates efficacy
"CCN1C(=O)c2cc(N)ccc2Oc2ccccc21 [BT3, 2-amino-10-ethyldibenzo[b,f][1,4]oxazepin-11(10H)-one]",effect on PD-1 expression,[4],no inhibitory effect
pembrolizumab: anti-PD-1 antibody,patients with treatment-related adverse events,[5]; advanced melanoma patients,86%
same,5 year overall survival,[5]; all patients,34%
same,5 year overall survival,[5]; treatment-naive patients,41%
"O=C(Nc1ccc2[nH]nc(-c3ccncc3)c2c1)[C@@H]1CCN(CC(=O)N2CCN(c3ccc(-c4ncccn4)cc3)CC2)C1 [SCH772984, reference compound]","ERK phosphorylation (p-ERK, Western blot)",[6],suppressed ERK phosphorylation
same,"ERK phosphorylation (p-ERK, Western blot)",[7],suppressed ERK phosphorylation
same,apoptosis (Annexin V-FITC+ PI−),[8],no or less potent pro-apoptotic effects
same,apoptosis (Annexin V-FITC+ PI−),[9],no or less potent pro-apoptotic effects
same,"potency in suppressing PD-1 expression, fold less potent than BT2",[2]; Western blot,> 10 fold
same,PD-1 expression (Western blot),[2],suppressed PD-1 expression
